Test results as given in ChEMBL document CHEMBL1201862, “PubChem BioAssay data set” (2004).
The source made the active and inactive calls.

Tests used:
[1] = molecular target: T1, Runt-related transcription factor 1/Core-binding factor subunit beta (Homo sapiens, UniProt Q01196+Q13951); test: inhibitors of RUNX1 Runt–CBFb-SMMHC binding, primary screen, biochemical, FRET, Cerulean-Runt, Venus-CBFb-SMMHC, uHTS (AID 1434); format: protein assay;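 note: partner is the CBFb-SMMHC leukemia fusion protein rather than wild-type CBFb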
T1 sequence (Q01196 whole entry, the tested form may be a part): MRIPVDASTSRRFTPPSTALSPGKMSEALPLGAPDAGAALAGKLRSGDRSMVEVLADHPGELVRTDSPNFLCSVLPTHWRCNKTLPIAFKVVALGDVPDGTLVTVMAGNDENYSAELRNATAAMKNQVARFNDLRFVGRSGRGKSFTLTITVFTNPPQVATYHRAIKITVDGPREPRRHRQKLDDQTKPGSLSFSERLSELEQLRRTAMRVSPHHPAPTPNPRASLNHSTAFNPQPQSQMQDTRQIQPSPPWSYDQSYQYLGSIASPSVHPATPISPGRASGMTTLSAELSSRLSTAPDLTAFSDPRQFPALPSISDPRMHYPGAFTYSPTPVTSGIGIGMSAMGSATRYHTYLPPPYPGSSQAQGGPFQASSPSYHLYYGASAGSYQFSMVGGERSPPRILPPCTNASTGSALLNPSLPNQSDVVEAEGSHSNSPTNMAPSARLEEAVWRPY
T1 sequence (Q13951 whole entry, the tested form may be a part): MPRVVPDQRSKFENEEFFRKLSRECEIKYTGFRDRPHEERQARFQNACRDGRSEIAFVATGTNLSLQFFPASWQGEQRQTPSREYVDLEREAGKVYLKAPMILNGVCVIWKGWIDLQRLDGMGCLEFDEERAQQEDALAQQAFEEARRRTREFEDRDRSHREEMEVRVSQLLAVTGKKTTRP

[2] = molecular target: T2, Endoribonuclease toxin MazF (Escherichia coli K-12, UniProt P0AE70); test: MazF toxin RNase activators, dose response, biochemical, fluorescence, single-stranded RNA substrate, uHTS hits (AID 588481); format: functional
T2 sequence (P0AE70 whole entry): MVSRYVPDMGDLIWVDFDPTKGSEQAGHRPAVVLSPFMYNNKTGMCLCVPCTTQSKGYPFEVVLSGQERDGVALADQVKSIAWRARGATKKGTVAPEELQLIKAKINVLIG

[3] = molecular target: T2, Endoribonuclease toxin MazF; test: fluorescent RNA oligo signal without MazF, dose response, counter-screen for MazEF activator project, biochemical, fluorescence, single-stranded RNase substrate (AID 588502); format: functional
[4] = molecular target: T1, Runt-related transcription factor 1/Core-binding factor subunit beta; test: inhibitors of RUNX1 Runt–CBFb-SMMHC binding, biochemical, TR-FRET (AID 1438); format: protein assay
[5] = molecular target: T3, Voltage-gated N-type calcium channel alpha-1B subunit/Amyloid beta A4 precursor protein-binding family A member 1 (Homo sapiens, UniProt Q00975+Q02410); format: protein assay
T3 sequence (Q00975 whole entry): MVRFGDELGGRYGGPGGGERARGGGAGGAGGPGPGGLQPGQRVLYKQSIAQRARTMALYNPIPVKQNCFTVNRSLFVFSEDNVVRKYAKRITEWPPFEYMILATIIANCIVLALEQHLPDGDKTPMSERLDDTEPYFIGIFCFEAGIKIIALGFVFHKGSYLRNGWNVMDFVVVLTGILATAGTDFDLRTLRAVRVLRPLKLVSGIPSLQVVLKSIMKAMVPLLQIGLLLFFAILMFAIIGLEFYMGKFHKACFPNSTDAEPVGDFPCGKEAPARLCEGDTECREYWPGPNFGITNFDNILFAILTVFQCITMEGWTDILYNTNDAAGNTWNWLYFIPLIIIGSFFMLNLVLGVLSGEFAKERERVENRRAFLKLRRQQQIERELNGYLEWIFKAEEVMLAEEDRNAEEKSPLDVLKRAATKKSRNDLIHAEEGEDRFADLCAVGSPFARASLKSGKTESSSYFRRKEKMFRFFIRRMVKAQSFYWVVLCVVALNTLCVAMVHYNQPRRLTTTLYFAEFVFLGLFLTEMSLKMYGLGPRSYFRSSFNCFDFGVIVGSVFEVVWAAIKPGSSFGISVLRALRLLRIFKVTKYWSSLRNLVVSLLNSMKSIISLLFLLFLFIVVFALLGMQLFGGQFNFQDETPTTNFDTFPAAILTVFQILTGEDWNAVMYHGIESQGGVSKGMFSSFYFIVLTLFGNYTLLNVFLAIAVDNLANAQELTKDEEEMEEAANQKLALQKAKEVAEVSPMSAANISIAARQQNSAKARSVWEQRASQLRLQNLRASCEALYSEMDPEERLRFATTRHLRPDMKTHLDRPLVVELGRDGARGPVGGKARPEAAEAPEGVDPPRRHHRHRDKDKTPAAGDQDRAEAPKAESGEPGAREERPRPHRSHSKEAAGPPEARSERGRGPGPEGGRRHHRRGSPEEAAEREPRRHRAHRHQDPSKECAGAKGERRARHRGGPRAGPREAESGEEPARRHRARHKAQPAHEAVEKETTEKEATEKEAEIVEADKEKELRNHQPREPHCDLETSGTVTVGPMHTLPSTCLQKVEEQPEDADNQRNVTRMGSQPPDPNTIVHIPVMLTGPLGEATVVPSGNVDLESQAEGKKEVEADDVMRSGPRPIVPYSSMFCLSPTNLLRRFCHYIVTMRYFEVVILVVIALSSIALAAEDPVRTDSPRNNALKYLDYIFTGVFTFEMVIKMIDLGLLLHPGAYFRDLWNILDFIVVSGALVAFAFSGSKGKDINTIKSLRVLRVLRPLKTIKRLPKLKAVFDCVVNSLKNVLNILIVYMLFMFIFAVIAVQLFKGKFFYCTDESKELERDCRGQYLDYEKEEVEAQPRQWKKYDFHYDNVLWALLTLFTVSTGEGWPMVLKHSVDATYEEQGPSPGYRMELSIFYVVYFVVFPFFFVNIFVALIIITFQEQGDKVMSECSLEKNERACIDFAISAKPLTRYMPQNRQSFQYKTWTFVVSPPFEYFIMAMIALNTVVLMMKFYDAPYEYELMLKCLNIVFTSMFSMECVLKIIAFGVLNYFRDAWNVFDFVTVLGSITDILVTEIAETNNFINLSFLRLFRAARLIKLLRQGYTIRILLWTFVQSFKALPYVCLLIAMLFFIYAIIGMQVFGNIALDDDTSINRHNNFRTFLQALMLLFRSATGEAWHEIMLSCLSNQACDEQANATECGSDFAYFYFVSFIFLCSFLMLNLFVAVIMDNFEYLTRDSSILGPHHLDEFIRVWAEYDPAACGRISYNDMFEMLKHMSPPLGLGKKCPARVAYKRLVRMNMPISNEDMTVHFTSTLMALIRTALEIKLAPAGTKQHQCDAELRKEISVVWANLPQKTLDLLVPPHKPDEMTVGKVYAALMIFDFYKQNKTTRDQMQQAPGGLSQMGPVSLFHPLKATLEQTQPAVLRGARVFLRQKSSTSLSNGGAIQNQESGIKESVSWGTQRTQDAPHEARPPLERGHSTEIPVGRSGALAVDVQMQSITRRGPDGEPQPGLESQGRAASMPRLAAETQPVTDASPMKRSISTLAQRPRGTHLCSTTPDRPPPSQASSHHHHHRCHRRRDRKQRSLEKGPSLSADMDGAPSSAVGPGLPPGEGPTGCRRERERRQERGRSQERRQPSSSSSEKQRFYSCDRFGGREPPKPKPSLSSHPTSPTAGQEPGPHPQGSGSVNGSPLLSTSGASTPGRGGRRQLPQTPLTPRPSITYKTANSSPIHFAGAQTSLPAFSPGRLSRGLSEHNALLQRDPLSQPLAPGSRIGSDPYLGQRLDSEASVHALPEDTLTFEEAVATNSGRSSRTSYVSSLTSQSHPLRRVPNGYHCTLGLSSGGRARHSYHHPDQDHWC
T3 sequence (Q02410 whole entry): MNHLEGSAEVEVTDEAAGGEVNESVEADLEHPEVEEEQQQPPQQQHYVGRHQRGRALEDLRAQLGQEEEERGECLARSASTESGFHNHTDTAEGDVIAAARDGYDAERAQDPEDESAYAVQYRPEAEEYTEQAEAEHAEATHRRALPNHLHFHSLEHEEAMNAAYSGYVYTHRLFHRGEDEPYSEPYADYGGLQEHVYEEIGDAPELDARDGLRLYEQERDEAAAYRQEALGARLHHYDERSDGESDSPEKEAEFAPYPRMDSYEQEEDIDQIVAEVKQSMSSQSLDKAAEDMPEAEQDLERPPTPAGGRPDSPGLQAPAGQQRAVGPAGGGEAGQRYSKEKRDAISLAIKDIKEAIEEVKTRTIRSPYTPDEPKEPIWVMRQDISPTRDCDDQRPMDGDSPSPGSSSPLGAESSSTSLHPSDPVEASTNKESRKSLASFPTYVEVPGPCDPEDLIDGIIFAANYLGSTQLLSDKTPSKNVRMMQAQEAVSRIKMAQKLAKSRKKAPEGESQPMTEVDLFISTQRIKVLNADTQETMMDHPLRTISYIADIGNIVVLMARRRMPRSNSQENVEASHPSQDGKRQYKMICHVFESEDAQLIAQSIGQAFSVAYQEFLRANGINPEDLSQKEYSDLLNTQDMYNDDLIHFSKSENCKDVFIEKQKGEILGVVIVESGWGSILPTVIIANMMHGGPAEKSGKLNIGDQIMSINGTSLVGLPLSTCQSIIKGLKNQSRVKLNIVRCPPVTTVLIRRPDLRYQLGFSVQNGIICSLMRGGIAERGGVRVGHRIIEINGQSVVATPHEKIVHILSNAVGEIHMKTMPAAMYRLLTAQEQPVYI

[6] = molecular target: T3, Voltage-gated N-type calcium channel alpha-1B subunit/Amyloid beta A4 precursor protein-binding family A member 1; format: protein assay; remark: listed apart in the source
HeLa = test: HeLa cell cytotoxicity, dose response, cytotoxicity control for MITF activator project, CellTiter-Glo luminescence, cherry-pick samples (AID 540259); format: functional, cell-based; conditions: Homo sapiens
[7] = molecular target: T4, Corticotropin-releasing factor receptor 2/Corticotropin-releasing factor-binding protein (Homo sapiens, UniProt P24387+Q13324); test: Dose Response confirmation of uHTS hits for small molecule antagonists of the CRF-binding protein and CRF-R2 receptor complex.; format: functional; conditions: read-out: IC50_Mean
T4 sequence (Q13324 whole entry): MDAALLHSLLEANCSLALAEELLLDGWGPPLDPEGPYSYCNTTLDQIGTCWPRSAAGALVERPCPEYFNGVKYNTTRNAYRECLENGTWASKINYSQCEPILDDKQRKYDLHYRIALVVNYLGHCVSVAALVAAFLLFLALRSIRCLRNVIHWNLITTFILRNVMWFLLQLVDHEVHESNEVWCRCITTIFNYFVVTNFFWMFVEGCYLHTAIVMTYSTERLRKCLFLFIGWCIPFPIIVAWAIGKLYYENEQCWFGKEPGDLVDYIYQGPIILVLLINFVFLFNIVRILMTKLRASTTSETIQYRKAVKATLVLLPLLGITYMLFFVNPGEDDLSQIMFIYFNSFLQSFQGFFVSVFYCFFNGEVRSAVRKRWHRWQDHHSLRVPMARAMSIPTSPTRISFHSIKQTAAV
T4 sequence (P24387 whole entry): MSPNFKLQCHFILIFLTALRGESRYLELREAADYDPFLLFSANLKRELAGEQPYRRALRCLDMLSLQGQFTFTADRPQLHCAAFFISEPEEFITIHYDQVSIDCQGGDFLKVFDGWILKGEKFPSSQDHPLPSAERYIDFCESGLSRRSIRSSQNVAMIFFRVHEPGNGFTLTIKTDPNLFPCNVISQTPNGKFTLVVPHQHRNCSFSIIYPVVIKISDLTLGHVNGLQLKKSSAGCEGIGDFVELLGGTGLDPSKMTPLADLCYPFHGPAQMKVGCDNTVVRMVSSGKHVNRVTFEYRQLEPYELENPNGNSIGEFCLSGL

[8] = molecular target: T4, Corticotropin-releasing factor receptor 2/Corticotropin-releasing factor-binding protein; test: activators of CRF receptor 2 with binding protein – uHTS hits, confirmation (AID 602473); format: functional; conditions: read-out: EC50_Mean
[9] = molecular target: Potassium voltage-gated channel subfamily KQT member 2 (Rattus norvegicus, UniProt O88943); test: retigabine-insensitive KCNQ2 potentiators, concentration-response, dose response, cell-based, retigabine-insensitive compounds (AID 2654); format: functional
[10] = molecular target: T5, Polyadenylate-binding protein 1 (Homo sapiens, UniProt P11940); test: PABP1 MLLE–PAM2 binding inhibitor potency, dose response, biochemical, fluorescence polarization, FITC-PAM2 peptide (AID 602259); format: functional; conditions: read-out: IC50_Mean
[11] = molecular target: T5, Polyadenylate-binding protein 1; test: PABP1 MLLE–PAM2 interaction inhibitors, dose response, miRNA deadenylation inhibitor project, biochemical, fluorescence polarization, Cy5-PAM2 peptide, secondary (AID 602260); format: functional; conditions: read-out: IC50_Mean
[12] = molecular target: T6, Rac GTPase-activating protein 1 (Homo sapiens, UniProt Q9H0H5); test: MgcRacGAP GTPase-activating activity inhibitors, confirmation, biochemical, ADP Hunter fluorescence, primary and confirmatory (AID 624330); format: functional
T6 sequence (Q9H0H5 whole entry): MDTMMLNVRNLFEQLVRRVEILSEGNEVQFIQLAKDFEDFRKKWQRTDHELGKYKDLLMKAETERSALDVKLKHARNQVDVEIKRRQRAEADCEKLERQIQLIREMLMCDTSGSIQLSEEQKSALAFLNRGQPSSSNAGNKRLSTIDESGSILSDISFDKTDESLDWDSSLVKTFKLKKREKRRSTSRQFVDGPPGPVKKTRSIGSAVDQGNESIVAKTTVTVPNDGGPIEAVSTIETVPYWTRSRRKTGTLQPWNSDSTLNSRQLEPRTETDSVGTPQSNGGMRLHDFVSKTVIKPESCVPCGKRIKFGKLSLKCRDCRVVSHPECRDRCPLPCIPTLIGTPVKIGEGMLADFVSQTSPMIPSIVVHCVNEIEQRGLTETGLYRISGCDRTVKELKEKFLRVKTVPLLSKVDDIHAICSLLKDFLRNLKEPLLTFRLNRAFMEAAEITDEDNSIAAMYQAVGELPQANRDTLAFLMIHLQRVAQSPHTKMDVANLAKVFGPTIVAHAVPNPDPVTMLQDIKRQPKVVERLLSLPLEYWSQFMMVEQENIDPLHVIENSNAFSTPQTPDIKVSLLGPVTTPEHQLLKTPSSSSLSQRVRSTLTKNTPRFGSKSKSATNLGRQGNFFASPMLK

[13] = molecular target: ATP-dependent molecular chaperone HSP82 (Candida albicans (strain WO-1) (Yeast), UniProt C4YTQ8); test: loss of DOC-induced GRE-beta-galactosidase reporter signal, dose response, Hsp90 inhibitor project, S. cerevisiae, luminescence (AID 2400); format: functional, cell-based;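 note: beta-galactosidase luminescence from glucocorticoid response element reporter as proxy for Hsp90 function; inhibitor potency where signal loss means Hsp90 inhibition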
Chain of ATP-dependent molecular chaperone HSP82 (C4YTQ8 whole entry): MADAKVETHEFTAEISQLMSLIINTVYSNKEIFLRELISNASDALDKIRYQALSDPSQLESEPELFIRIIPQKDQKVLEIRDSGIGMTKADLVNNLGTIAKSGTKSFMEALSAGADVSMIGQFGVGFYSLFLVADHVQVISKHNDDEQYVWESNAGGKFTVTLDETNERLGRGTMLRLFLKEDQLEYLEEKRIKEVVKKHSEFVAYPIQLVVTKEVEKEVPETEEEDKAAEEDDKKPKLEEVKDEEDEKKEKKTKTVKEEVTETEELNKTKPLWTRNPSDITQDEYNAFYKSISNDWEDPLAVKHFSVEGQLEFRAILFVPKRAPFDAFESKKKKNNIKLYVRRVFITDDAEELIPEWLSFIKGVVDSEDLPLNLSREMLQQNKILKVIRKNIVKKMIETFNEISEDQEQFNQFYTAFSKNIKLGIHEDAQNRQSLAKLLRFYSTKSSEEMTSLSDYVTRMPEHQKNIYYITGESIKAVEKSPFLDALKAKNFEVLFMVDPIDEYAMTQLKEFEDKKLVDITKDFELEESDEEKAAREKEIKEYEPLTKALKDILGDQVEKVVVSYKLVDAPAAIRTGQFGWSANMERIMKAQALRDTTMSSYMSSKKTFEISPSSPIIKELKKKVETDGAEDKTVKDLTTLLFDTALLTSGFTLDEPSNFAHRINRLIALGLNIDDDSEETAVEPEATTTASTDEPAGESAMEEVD

[14] = NIH-3T3 fibroblast cytotoxicity, dose response, cytotoxicity control, cell-based, fluorescence, Alamar Blue, secondary assay (AID 2327); format: functional;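 note: NIH-3T3 mouse fibroblasts cultured with fluconazole at 8 µg/mL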
[15] = molecular target: T7, Serine/threonine-protein phosphatase (Candida dubliniensis (strain CD36 / CBS 7987 / NCPF 3949 / NRRLY-17841) (Yeast), UniProt B9W6M3); test: calcineurin pathway inhibitors in yeast reporter, dose response, S. cerevisiae, CDRE-lacZ, luminescence, secondary (AID 2388); format: functional, cell-based;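 note: yeast reporter cells carrying a calcineurin-responsive lacZ construct stimulated with calcium chloride; luminescent beta-galactosidase reporter signal in whole cells rather than isolated phosphatase activity; potency for inhibition where a drop in reporter signal means calcineurin blockade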
T7 sequence (B9W6M3 whole entry): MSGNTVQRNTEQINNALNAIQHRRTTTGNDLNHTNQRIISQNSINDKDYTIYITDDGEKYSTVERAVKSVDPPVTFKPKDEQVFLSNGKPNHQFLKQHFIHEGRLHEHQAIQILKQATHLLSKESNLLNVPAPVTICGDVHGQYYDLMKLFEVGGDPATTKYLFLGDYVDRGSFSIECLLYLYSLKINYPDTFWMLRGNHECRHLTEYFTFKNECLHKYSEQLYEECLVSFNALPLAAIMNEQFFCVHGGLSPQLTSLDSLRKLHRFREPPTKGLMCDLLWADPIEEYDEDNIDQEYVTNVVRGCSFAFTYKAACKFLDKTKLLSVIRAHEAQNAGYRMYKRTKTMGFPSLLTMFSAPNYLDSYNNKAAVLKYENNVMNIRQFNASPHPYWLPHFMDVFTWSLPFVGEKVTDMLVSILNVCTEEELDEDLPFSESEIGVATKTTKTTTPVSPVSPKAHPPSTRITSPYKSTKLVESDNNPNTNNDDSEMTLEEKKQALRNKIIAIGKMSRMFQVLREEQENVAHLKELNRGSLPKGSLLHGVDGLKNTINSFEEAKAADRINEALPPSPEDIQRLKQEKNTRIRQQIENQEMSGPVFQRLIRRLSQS

[16] = tested on: Streptococcus sp. 'group A'; test: growth inhibition of control SK(-) GAS strain, dose response, counter-screen for streptokinase expression inhibitor project, luminescence, kanamycin, BacTiterGlo, confirmation (AID 1900); format: functional, organism-based
Streptococcus = test: Group A Streptococcus viability loss, dose response, counter-screen for streptokinase expression inhibitor project, luminescence, BacTiterGlo (AID 1915); format: functional, organism-based;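 note: potency for reduction of bacterial viability or growth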
[17] = molecular target: Voltage-dependent T-type calcium channel subunit alpha-1H (Homo sapiens, UniProt O95180); format: functional;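 note: channel activity triggered by adding a high calcium stimulation buffer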
[18] = C. albicans growth with fluconazole, confirmation, fluorescence, retest (AID 2467); format: functional, cell-based
[19] = cytotoxicity in HEK-293T cells, dose response, cytotoxicity control for TCR NF-kB inhibitor project, luminescence, T-cell screen hits (AID 489026); format: functional, cell-based;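 note: cells exposed to compound about 14 hours before the viability readout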
cells [20] = format: functional, cell-based
[21] = molecular target: Heat shock protein HSP 90-alpha (Homo sapiens, UniProt P07900); format: functional, organism-based
[22] = inhibitors of intracellular T. cruzi replication, confirmation, NIH3T3 host cells, beta-gal luminescence (AID 2044); format: functional, cell-based;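 note: intracellular parasites grown in NIH/3T3 mouse fibroblasts as host cells; luminescent beta-galactosidase reporter signal from transgenic T. cruzi replicating inside host cells; inhibitors lower the luminescence signal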
cells [23] = format: functional, cell-based; remark: listed apart in the source
[24] = cytotoxicity toward NIH3T3 fibroblasts, dose response, counter-screen, cell-based, ATP luminescence, mouse fibroblasts (AID 2010); format: functional;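 note: cells exposed to compound for about 90 hours before reading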
[25] = molecular target: Dual specificity tyrosine-phosphorylation-regulated kinase 1A (Rattus norvegicus, UniProt Q63470); format: biochemical, Homo sapiens
Large T antigen = Large T antigen (Simian virus 40, UniProt P03070); format: functional, Betapolyomavirus macacae;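 note: Confirmatory-stage PubChem screen for compounds that inhibit SV40 T antigen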

In the case of `COc1ccc2nc(N3CCCC3)c(C#N)cc2c1`, the IC50 [1] is reported as 2.04 µM (active), the EC50 [2] is reported as > 99 µM (inactive) and the EC50 [3] is reported as > 99 µM (inactive). For the same compound, the IC50 [4] was > 100 µM (inactive).
With `O=C(CCN1C(=O)/C(=C/c2ccccc2Cl)SC1=S)NC1C=CS(=O)(=O)C1` (stereo unspecified) the IC50 [5] was > 50 µM (inactive) and the IC50 [6] was 5.41 µM (active).
For `Cc1ccc(NC(=O)C2C3/C=C\CCCCC32)cc1` (stereo unspecified), the AC50 (HeLa) was 197 µM (active).
In the case of `CCCCc1ccc(NC(=S)Nc2cccnc2)cc1`, the IC50 [7] is reported as > 47.1 µM (inactive), the EC50 [8] is reported as > 53 µM (inactive) and the EC50 [9] is reported as 268 µM (active).
With `N#Cc1ccc(C(=O)NC2CCCCCCC2)cc1` the AC50 (HeLa) was 55 µM (active).
In the case of `COc1cccc(Nc2ccc(N3CCCCC3)cc2)c1OC`, the IC50 [10] is reported as 21.4 µM (inactive), the AC50 (HeLa) is reported as 252 µM (active) and the IC50 [11] is reported as > 66 µM (inactive). The IC50 [12] was 9.65 µM (active).
With `COc1ccc(-c2nnc(NC(=O)c3cc(Cl)ccc3Cl)o2)cc1` the EC50 [13] was 18 µM (active), the EC50 [14] was > 150 µM (inactive) and the EC50 [15] was > 180 µM (inactive). The EC50 [16] was 2.64 µM (active), the EC50 (Streptococcus) was 7.89 µM (active) and the EC50 [17] was 10.8 µM (active). The EC50 [18] was 0.815 µM (active).
For `O=C(N/N=C/c1c(O)ccc2ccccc12)c1cccc(C(F)(F)F)c1`, the EC50 [13] was 9.34 µM (active), the EC50 [14] was 26.9 µM (active) and the EC50 [15] was > 180 µM (inactive). For the same compound, the IC50 [19] was > 80 µM (inactive), the EC50 (cells [20]) was > 350 µM (not active) and the AC50 [21] was 2.24 µM (active). For the same compound, the EC50 [22] was 0.686 µM (active), the EC50 (cells [23]) was 8.23 µM (active) and the EC50 [24] was 6.11 µM (active). For the same compound, the EC50 [18] was 0.452 µM (active).
With `N#Cc1c(-c2ccncc2)c2c([nH]c1=O)-c1ccccc1OC2` the IC50 [1] was 1.04 µM (active) and the IC50 [4] was > 100 µM (inactive).
With `O=C1NC(=O)/C(=C/c2ccc(O)cc2)S1` the AC50 [25] was 0.414 µM (active) and the IC50 (Large T antigen) was 10.1 µM (active).
